Entries after “also recorded” stand apart in the source; their conditions may differ.
Key:
enteric nerve plexus = settings: GI tract treated in vivo; cited from earlier work
donor spermatogenesis = assay: Testicular cell transplantation 7 days post BC treatment; assay type: in vivo, mouse; settings: CAG-EGFP pup testicular cells transplanted 7 days post BC
Protocol: 10-15 μl of approximately 1×10^6/ml isolated Sertoli cells or 1×10^8/ml (testicular cells) were injected through the rete testis into the seminiferous tubules of a host mouse on day 4 or day 7 after ablation treatment. A glass needle was back-loaded with the cell suspension and 0.04% Trypan blue to track the efficiency of the injection.
To determine whether the host testes depleted for both Sertoli and germ cells could be used as a scaffold for engraftment of multiple cell types, we performed testicular cell transplantation 7 days post BC treatment (FIG. 7). Nineteen days after testicular cell transplantation from CAG-EGFP pups into a treated host testis, donor Sertoli cells and SSCs colonized. Donor SSCs proliferated with support from donor Sertoli cells, initiated meiosis, and progressed to the spermatocyte stage. EGFP positive leptotene and pachytene spermatocyte were detected. […] Most of these interstitial EGFP bright donor cells were Leydig cells, and some donor PMC colonization was also detected. […] Round spermatids and elongated spermatids generated from donor SSCs with support from donor Sertoli cells were detected in the host testis. In 9/13 testes, donor Sertoli cell and SSC colonization was observed, and full spermatogenesis was detected in 4 of these hosts.

SSCs = assay: SSC kinetics after BC treatment in DND1-EGFP mouse; assay type: in vivo
Protocol: (§1) Host mice were anesthetized. A glass needle was back-loaded with the drug and 0.02% bromophenol blue to track the success of the injection and extent of delivery into the tissue. The mixture was injected into the rete-testis.
We used a DND1 (dead end homolog 1)-EGFP mouse to investigate SSC kinetics after BC treatment. In this transgenic mouse, all SSCs including undifferentiated SSCs and differentiating spermatogonia express EGFP. 0.02% BC (or PBS control) was injected into seminiferous tubules of adult testis. […] Although Sertoli cells and germ cells were lost in drug affected tubules, cord structure, Leydig cells, and PMCs were normal.

Sertoli cells [1] = assay: Neonatal testis Sertoli cell selective depletion in vitro (testis tissue culture, immunofluorescence); assay type: cell-based, mouse; settings: 0.02% BC 10 min, cultured 4 days
Protocol: Fragments of the mouse testis were incubated with 0.02% BC for 10 min. After washing several times with PBS, tissues were placed atop 1.5% agarose blocks (214530; Difco), prepared and placed in 6 well tissue culture plates (353046; Falcon) with ˜500 μl of 10% FBS+DMEM (11995-065; Gibco) to reach halfway up the side of the block. After culture, tissues were washed in PBS and fixed for immunofluorescence. The dog testis tissues were incubated with 0.02% or 0.03% BC for 10 min and cultured with 10% KnockOut Serum Replacement (KSR) (Invitrogen; 10828-028)+DMEM (Yokonishi, T., et al. Methods in Molecular Biology 927: 479-488 (2013)). The culture incubator was supplied with 5% (vol/vol) carbon dioxide in air and maintained at 37° C.
For cultured neonatal mouse testes, whole-mount immunofluorescence analysis was performed. Samples were fixed overnight with 4% (wt/vol) paraformaldehyde in PBS at 4° C. After several washes in PBTx (PBS plus 1% Triton X-100), samples were incubated in blocking solution (1% PBTx plus 10% FBS and 3% BSA) for 1 h at room temperature. Primary antibodies were diluted in blocking solution and applied to samples for 2 days at 4° C. After several washes in 1% PBT, fluorescent secondary antibodies were applied for 2 days at 4° C.
We incubated a neonatal testis in 0.02% BC solution for 10 min (or PBS as a control), washed the testis several times with PBS and cultured for 4 days at the surface/air interface in wells atop an agarose block (FIG. 1). At the end of that time, the testis was fixed and stained for immunofluorescence analysis using an antibody against the Sertoli cell marker, SOX9 (Sry-box 9). […] Although the number of F4/80 positive macrophages was increased in the interstitium of drug treated testis, other cell types in the testis including GFRα1 (GDNF family receptor al) and E-CAD (Cadherin1)-positive SSCs, and 3βHSD (3β-hydroxysteroid dehydrogenase)-positive Leydig cells were spared.

epithelial cells = assay: In vitro epithelial cell ablation in kidney, GI tract, liver and lung tissue culture; assay type: cell-based, mouse; settings: 0.03% BC 10 min, cultured 4 days
Protocol: Fragments of the mouse kidney, GI tract, liver and lung were incubated with 0.03% BC for 10 min. After washing several times with PBS, tissues were placed atop 1.5% agarose blocks (214530; Difco), prepared and placed in 6 well tissue culture plates (353046; Falcon) with ˜500 μl of 10% KnockOut Serum Replacement (KSR) (Invitrogen; 10828-028)+DMEM (11995-065; Gibco) to reach halfway up the side of the block. After culture, tissues were washed in PBS and fixed for immunofluorescence. The culture incubator was supplied with 5% (vol/vol) carbon dioxide in air and maintained at 37° C.
We incubated a neonatal kidney, GI tract, liver and lung tissues in 0.03% BC solution for 10 min, washed the tissues several times with PBS and cultured for 4 days at the surface/air interface in wells atop an agarose block (FIG. 9). At the end of that time, the tissues were fixed and stained for immunofluorescence analysis using an antibody against E-CAD (Cadherin1), epithelial marker. […] Although epithelial cells were eliminated in drug treated tissues, LMN (laminin) positive basement membrane and stromal cells which is stained with PDGFRβ were maintained.

Sertoli cells [2] = assay: Adult Sertoli cell depletion in vivo (injection into rete testis); set-up: species or system mouse
Protocol: as §1
Adult mouse testis and canine testis tissues were fixed in 4% (wt/vol) paraformaldehyde in PBS at 4° C. overnight and cryoembedded in OCT compound (Sakura Finetek). Samples were cut into 14-μm-thick cryosections. Incubation with primary antibodies was performed overnight at 4° C., followed by 2 washes, and incubation with secondary antibodies for 1 h at room temperature. Nuclei were counterstained with Hoechst 33342 dye. Samples were mounted on glass slides and imaged with a confocal laser microscope (Zeiss 780).
We injected a solution of 0.02% BC (or PBS as a control) into the rete testis of anesthetized adult male mice to test the effects of the drug on adult Sertoli cells. To detect Sertoli cells easily, we used a Sox9-ECFP transgenic mouse (FIG. 5). […] However, four days after treatment, Sertoli cells had disappeared from approximately 30-40% of seminiferous tubules.

In the case of benzalkonium chloride [BC], the “removal of enteric nerve plexus” value (enteric nerve plexus) is listed as “remove the mouse and rat enteric nerve plexus”, the “hosts with full spermatogenesis (of the colonized testes)” value (donor spermatogenesis) is listed as 4 and the “testes with donor Sertoli cell and SSC colonization” value (donor spermatogenesis) is listed as 9/13. For the same substance, the “SSC loss (DND1-EGFP)” value (SSCs; 0.02% BC into seminiferous tubules, three days after Sertoli cells were depleted (7 days post BC)) was “SSCs had also disappeared”, the “cord structure, Leydig cells and PMCs in drug affected tubules” value (SSCs; 0.02% BC, 7 days post treatment) was “normal” and the “Sertoli cell elimination (SOX9 immunofluorescence)” value (Sertoli cells [1]) was “specifically eliminated Sertoli cells”. The “effect on other testis cell types (GFRα1 and E-CAD-positive SSCs, 3βHSD-positive Leydig cells)” value (Sertoli cells [1]) was “spared”, the “number of F4/80 positive macrophages in the interstitium” value (Sertoli cells [1]) was “increased” and the “LMN positive basement membrane and PDGFRβ stromal cells” value (epithelial cells) was “maintained”. For the same substance, the “epithelial cell elimination (E-CAD immunofluorescence)” value (epithelial cells; neonatal kidney, GI tract, liver and lung) was “specifically eliminated epithelial cells”, the “Sertoli cell depletion based on SOX9 expression” value (Sertoli cells [2]; 0.02% BC into rete testis, day 3) was “Sertoli cell depletion was not detected” and the “seminiferous tubules from which Sertoli cells had disappeared” value (Sertoli cells [2]; 0.02% BC into rete testis, four days after treatment) was 30-40%. For the same substance, the “Caspase3 positive Sertoli cells (apoptosis)” value (Sertoli cells [2]; 0.02% BC, 4 days after treatment) was “did not detect Caspase3 positive Sertoli cells”, the “Leydig cells and endothelial cells (3βHSD, PECAM1)” value (Sertoli cells [2]; 0.02% BC, day 4) was “not obviously affected” and the “PMCs (SMA staining)” value (Sertoli cells [2]; 0.02% BC, day 4) was “PMCs were intact”. The “SSCs in drug affected tubules (STRA8, Hu C/D, c-KIT)” value (Sertoli cells [2]; 0.02% BC, day 4) was “some SSCs were found along the basal lamina”, the “basic tubular structure (anti-Laminin staining)” value (Sertoli cells [2]; 0.02% BC, day 4) was “basic tubular structure was also intact” and the “macrophage invasion and proliferation (F4/80)” value (Sertoli cells [2]; 0.02% BC, day 4) was “many macrophages positive for F4/80 surrounded the affected tubules and some had invaded inside”. For the same substance, the “Sertoli cell elimination (summary)” value (Sertoli cells [2]; 4 days after 0.02% BC treatment) was “Sertoli cells were eliminated” and the “system-wide / side effects after drug injection into rete testis” value (Sertoli cells [2]; mouse, BC injection) was “no apparent system-wide effects; also recorded: no discernable side effects”.
